What is called IC50 is the concentration at which inhibition is half-maximal.

The target in one assay is T1, Dihydrofolate reductase (Bos taurus, UniProt P00376).
T1 sequence (P00376 whole entry): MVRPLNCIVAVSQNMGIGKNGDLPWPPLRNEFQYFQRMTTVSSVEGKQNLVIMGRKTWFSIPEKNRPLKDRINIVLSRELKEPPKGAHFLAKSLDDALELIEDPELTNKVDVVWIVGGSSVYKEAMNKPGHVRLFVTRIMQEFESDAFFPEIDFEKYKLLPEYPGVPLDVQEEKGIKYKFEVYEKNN
Put plainly: Inhibition of bovine liver DHFR.

The next assay has as its system Staphylococcus aureus. Nature of the assay: Antimicrobial activity against Staphylococcus aureus assessed as inhibition zone at 200 ug/disk after 24 hrs by disc-diffusion method. In kind it is functional. The settings on record: read-out: IZ.
A further assay concerns Bacillus subtilis. Nature of the assay: Antimicrobial activity against Bacillus subtilis assessed as inhibition zone at 200 ug/disk after 24 hrs by disc-diffusion method. The following applies: read-out: IZ. Format: functional.
The subject of another assay is Escherichia coli. Nature of the assay: Antimicrobial activity against Escherichia coli assessed as inhibition zone at 200 ug/disk after 24 hrs by disc-diffusion method. The settings on record: read-out: IZ. Format: functional. On the technique in general: A growth-free zone around the sample is the usual read-out of agar diffusion tests.
Another assay concerns Pseudomonas aeruginosa. Put plainly: Antimicrobial activity against Pseudomonas aeruginosa assessed as inhibition zone at 200 ug/disk after 24 hrs by disc-diffusion method. Format: functional. The following applies: read-out: IZ.
Another assay deals with Candida albicans. Nature of the assay: Antimicrobial activity against Candida albicans assessed as inhibition zone at 200 ug/disk after 24 hrs by disc-diffusion method. The following applies: read-out: IZ. Format: functional.
The subject of the next assay is HL-60(TB). Put plainly: Growth inhibition of human HL-60(TB) cells at 10 uM after 48 hrs. In kind it is functional. The settings on record: HL-60, 48 h, read-out: GI.
Assay [1] is described as follows: Growth inhibition of human RPMI8226 cells at 10 uM after 48 hrs. The settings on record: RPMI-8226, 48 h, read-out: GI. In kind it is functional.
Assay [2] is described as follows: Growth inhibition of human HOP92 cells at 10 uM after 48 hrs. The following applies: HOP-92, 48 h, read-out: GI. Format: functional.
The test system of the next assay is MCF7. Put plainly: Growth inhibition of human MCF7 cells at 10 uM after 48 hrs. In kind it is functional. The settings on record: MCF7, 48 h, read-out: GI.
The next assay concerns T47D. Put plainly: Growth inhibition of human T47D cells at 10 uM after 48 hrs. In kind it is functional. The settings on record: read-out: GI.
Another assay has as its system CCRF-CEM. Nature of the assay: Growth inhibition of human CCRF-CEM cells at 10 uM after 48 hrs. In kind it is functional. The settings on record: read-out: GI.
The next assay concerns K562. Put plainly: Growth inhibition of human K562 cells at 10 uM after 48 hrs. In kind it is functional. The following applies: K562, 48 h, read-out: GI.
Assay [3] can be described thus: Growth inhibition of human MOLT4 cells at 10 uM after 48 hrs. In kind it is functional. The settings on record: MOLT-4, 48 h, read-out: GI.
Another assay relates to SR. Put plainly: Growth inhibition of human SR cells at 10 uM after 48 hrs. In kind it is functional. The following applies: read-out: GI.
A further assay concerns A549. Nature of the assay: Growth inhibition of human A549 cells at 10 uM after 48 hrs. Format: functional. The settings on record: A549, 48 h, read-out: GI.
The next assay concerns NCI-H226. Nature of the assay: Growth inhibition of human NCI-H226 cells at 10 uM after 48 hrs. In kind it is functional. The settings on record: NCI-H226, 48 h, read-out: GI.
Another assay relates to NCI-H522. Put plainly: Growth inhibition of human NCI-H522 cells at 10 uM after 48 hrs. Format: functional.
Assay [4] in a line: Growth inhibition of human HCT116 cells at 10 uM after 48 hrs. In kind it is functional. The settings on record: HCT-116, 48 h, read-out: GI.
Assay [5] can be described thus: Growth inhibition of human HCT15 cells at 10 uM after 48 hrs. In kind it is functional. The settings on record: HCT-15, 48 h, read-out: GI.
Another assay has as its system HT-29. Nature of the assay: Growth inhibition of human HT-29 cells at 10 uM after 48 hrs. Format: functional. The settings on record: HT-29, 48 h, read-out: GI.
In a further assay the test system is KM12. Nature of the assay: Growth inhibition of human KM12 cells at 10 uM after 48 hrs. Format: functional. The following applies: KM12, 48 h, read-out: GI.
The next assay concerns SK-MEL-5. Put plainly: Growth inhibition of human SK-MEL-5 cells at 10 uM after 48 hrs. Format: functional. The settings on record: SK-MEL-5, 48 h, read-out: GI.
A short description of assay [6]: Growth inhibition of human UACC62 cells at 10 uM after 48 hrs. Format: functional. The settings on record: UACC-62, 48 h, read-out: GI.
A short description of assay [7]: Growth inhibition of human OVCAR4 cells at 10 uM after 48 hrs. Format: functional. The settings on record: OVCAR-4, 48 h, read-out: GI.
The subject of a further assay is A498. Nature of the assay: Growth inhibition of human A498 cells at 10 uM after 48 hrs. The settings on record: A498, 48 h, read-out: GI. Format: functional.
Assay [8] is described as follows: Growth inhibition of human RXF393 cells at 10 uM after 48 hrs. In kind it is functional. The settings on record: RXF 393, 48 h, read-out: GI.
For another assay, the system named is UO-31. Nature of the assay: (§1) Growth inhibition of human UO31 cells at 10 uM after 48 hrs. Format: functional.
Assay [9] can be described thus: Growth inhibition of human PC3 cells at 10 uM after 48 hrs. In kind it is functional. The settings on record: PC-3, 48 h, read-out: GI.
In the next assay the test system is MDA-MB-468. Put plainly: Growth inhibition of human MDA-MB-468 cells at 10 uM after 48 hrs. The settings on record: MDA-MB-468, 48 h, read-out: GI. Format: functional.
Assay [10] can be described thus: Growth inhibition of human SF295 cells at 10 uM after 48 hrs. The settings on record: SF-295, 48 h, read-out: GI. Format: functional.
The nature of assay [11]: as §1. Format: functional. The following applies: UO-31, 48 h, read-out: GI.
Another assay has as its system CAKI-1. Put plainly: Growth inhibition of human CAKI-1 cells at 10 uM after 48 hrs. In kind it is functional. The settings on record: CAKI-1, 48 h, read-out: GI.
The subject of another assay is NCI-H23. Put plainly: Growth inhibition of human NCI-H23 cells at 10 uM after 48 hrs. The following applies: NCI-H23, 48 h, read-out: GI. Format: functional.
The subject of the next assay is Malme-3M. Nature of the assay: Growth inhibition of human MALME-3M cells at 10 uM after 48 hrs. Format: functional. The following applies: read-out: GI.

The source made the active and inactive calls. No cut-off for these calls is given here.

The molecule `Nc1nnc(Sc2nc3ccc(Cl)cc3c(=O)n2-c2ccccc2)s1` showed an IC50 on Dihydrofolate reductase of 6 µM. The zone of inhibition at 200 µg/disc in the assay on Staphylococcus aureus, in the assay on Bacillus subtilis, in the assay with Escherichia coli, with Pseudomonas aeruginosa and in the assay with Candida albicans was 8 mm throughout. Further, the inhibition of growth at 10 µM in the assay with HL-60(TB) came out at 21.5%; in assay [1], 19.1%; in assay [2], 28.6%; in the assay with MCF7, 16.4%; with T47D, 21.4%.
Take `COc1cc2nc(Sc3nnc(N)s3)n(-c3ccc(Oc4ccccc4)cc3)c(=O)c2cc1OC`: half-maximal inhibition against Dihydrofolate reductase (IC50) required 0.6 µM. Also, the zone of inhibition at 200 µg/disc in the assay on Staphylococcus aureus, in the assay on Bacillus subtilis, in the assay with Escherichia coli, in the assay on Pseudomonas aeruginosa and in the assay on Candida albicans was 8 mm throughout. For the same molecule, the inhibition of growth at 10 µM in the assay on CCRF-CEM is 11.2%; with HL-60(TB) it was 11.2%; in the assay with K562, 22.5%; in assay [3], 29.6%; in [1], 43.7%; in the assay with SR it was 57.3%. In addition, the inhibition of growth at 10 µM in the assay with A549 was determined as 15.2%; with NCI-H226, 13.4%; in [4], 11.5%; in assay [5], 21.4%; in the assay with HT-29, 17.6%; in the assay on KM12, 20.7%. Moreover, the inhibition of growth at 10 µM is 28.2% with SK-MEL-5; 22.1% in [6]; 34.6% in assay [7]; 19.3% in the assay on A498; 10.7% in assay [8]; 23.2% in assay [9]. The values for the inhibition of growth at 10 µM in the assay with MCF7, in the assay with T47D and in the assay on MDA-MB-468 were 14.8%, 38.4% and 22.6%, respectively. For the same molecule, the “growth inhibition (GI)” value with NCI-H522 and in the assay with UO-31 was “inactive” each time.
In the case of `COc1cc2nc(Sc3nnc(N)s3)n(Cc3ccccc3)c(=O)c2cc1OC`, the half-maximal inhibitory concentration (IC50) against Dihydrofolate reductase worked out at 6 µM. Moreover, the zone of inhibition at 200 µg/disc with Staphylococcus aureus was 8 mm; with Bacillus subtilis it was 14 mm; in the assay on Escherichia coli, 8 mm; in the assay on Pseudomonas aeruginosa, 8 mm; in the assay on Candida albicans it was 8 mm. In addition, the inhibition of growth at 10 µM is 18.5% in assay [3]; 13.4% in the assay with SR; 26.7% in [2]; 11.4% in assay [10]; 18.7% in the assay on A498; 21.5% in assay [11].
The molecule `COc1ccc(-n2c(Sc3nnc(N)s3)nc3ccc(Cl)cc3c2=O)cc1` had an IC50 against Dihydrofolate reductase of 0.8 µM. Further, the zone of inhibition at 200 µg/disc in the assay on Staphylococcus aureus, with Bacillus subtilis, in the assay on Escherichia coli, in the assay on Pseudomonas aeruginosa and in the assay on Candida albicans was 8 mm each time. In addition, the inhibition of growth at 10 µM in [3] was found to be 12%; with SR, 19.1%; in assay [2] it was 42.1%; in the assay on NCI-H226, 13.4%; in [10] it was 11%; in the assay with A498 it was 36.4%. For the same molecule, the inhibition of growth at 10 µM in assay [11] worked out at 21.1%; in the assay with MCF7, 13.2%; in the assay on T47D, 12%.
Molecule `COc1ccc(-n2c(Sc3sc(N)nc3C)nc3ccc(Cl)cc3c2=O)cc1` came in with an IC50 on Dihydrofolate reductase of 8 µM. In addition, the zone of inhibition at 200 µg/disc with Staphylococcus aureus, in the assay on Bacillus subtilis, in the assay on Escherichia coli, in the assay with Pseudomonas aeruginosa and in the assay with Candida albicans was 8 mm each time. Besides, the inhibition of growth at 10 µM came out at 14.3% in the assay on K562; 14.6% in assay [1]; 13.5% in the assay on SR; 24.9% in assay [2]; 11.8% in the assay on NCI-H226; 10.5% in the assay on NCI-H522 (NCI-H522, 48 h, read-out: GI). Moreover, the inhibition of growth at 10 µM in assay [10] amounted to 27.6%; in [6] it was 12.6%; in assay [7] it was 13.8%; with A498, 24.3%; in the assay with CAKI-1 it was 13.1%; in assay [8] it was 13.4%. Moreover, the values for the inhibition of growth at 10 µM (in assay [11]; in assay [9]; in the assay with MCF7) were 35.5%, 14.7% and 11.5%, respectively.
`Nc1nnc(Sc2nc3ccc(Cl)cc3c(=O)n2Cc2ccccc2)s1` gave an IC50 against Dihydrofolate reductase of 8 µM. Also, the zone of inhibition at 200 µg/disc worked out at 8 mm with Staphylococcus aureus; 8 mm in the assay with Bacillus subtilis; 12 mm with Escherichia coli; 8 mm with Pseudomonas aeruginosa; 8 mm with Candida albicans. Besides, the inhibition of growth at 10 µM is 24.3% in the assay with HL-60(TB); 24.8% in the assay with K562; 16.8% in [3]; 17.3% in assay [1]; 10.3% with NCI-H23; 13.5% in assay [10]. For the same molecule, the inhibition of growth at 10 µM in the assay on Malme-3M was determined as 19.2%; in [6] it was 17.5%; with A498, 25.9%; in assay [11], 27.2%; in [9], 12.8%.

The values above are taken from ChEMBL document CHEMBL3352542, “Synthesis, biological evaluation and molecular modeling study of 2-(1,3,4-thiadiazolyl-thio and 4-methyl-thiazolyl-thio)-quinazolin-4-ones as a new class of DHFR inhibitors” (Bioorg Med Chem Lett, 2014).
